Laboratory results taken from paper PMC8037948, “Assessing the In Vitro Inhibitory Effects on Key Enzymes Linked to Type-2 Diabetes and Obesity and Protein Glycation by Phenolic Compounds of Lauraceae Plant Species Endemic to the Laurisilva Forest” (Molecules, 2021).
pIC50: −log10 of the molar value.

How the values were obtained:
[1] = biological target: T1, rat α-glucosidase (intestinal acetone powder from rat); test: p-nitrophenyl alpha-D-glucopyranoside hydrolysis, absorbance at […] nm; type: biochemical; details: alpha-pNPG, 0.1 M phosphate pH 6.9, 37 °C, 20 min; crude intestinal extract
T1 construct: gene Si; supernatant of rat intestinal acetone powder (Sigma-Aldrich), crude extract; several alpha-glucosidases

[2] = biological target: T2, human aldose reductase (HAR) (Homo sapiens, UniProt P15121); test: NADPH absorbance at […] nm; type: biochemical
T2 construct: gene AKR1B1; commercial enzyme from Prozomix

Structure (SMILES): OC[C@H]1NC[C@H](O)[C@@H](O)[C@@H]1O [1-Deoxynojirimycin]
- α-Glucosidase [1]: 0.01 ± 0.01 mg/mL

Structure (SMILES): Oc1cc(O)c2c(c1)O[C@H](c1ccc(O)c(O)c1)[C@@H](O)C2 [(+)-Catechin]
- pIC50 [2]: 2.58

Structure (SMILES): C[C@H]1O[C@H](O[C@H]2[C@H](O)[C@@H](O)[C@@H](O[C@H]3[C@H](O)[C@@H](O)C(O)O[C@@H]3CO)O[C@@H]2CO)[C@H](O)[C@@H](O)[C@@H]1N[C@H]1C=C(CO)[C@@H](O)[C@H](O)[C@H]1O (stereo partly drawn) [Acarbose]
- α-Glucosidase [1]: 0.12 ± 0.01 mg/mL
